Test results as given in patent US8410310B2, “Trypsin-like serine protease inhibitors, and their preparation and use” (The Medicines Company (Leipzig) GmbH, priority 2006, dated 2013).

How the values were obtained:
[1] = test system: thrombin generation in platelet-rich human plasma; assay: Thrombin generation assay (Technothrombin TGA); type: cell-based; conditions: 100 to 1000 nM, intrinsic and extrinsic activation
Method: Venous blood was withdrawn from the antecubital vein from healthy volunteers after written informed consent in accordance with local and federal guidelines with approval of the local review board (Ethikkommission, Klinikum Charité, Sauerbruchweg 5, 10117 Berlin). The blood was mixed with 0.11 mol/L sodium citrate (1:10). For ROTEM® analysis, whole citrated blood was used within 8 h after collection. Platelet-rich plasma (PRP) was prepared from citrated blood by centrifugation at 330×g for 10 min at room temperature, platelet-poor plasma (PPP) was collected following centrifugation at 1220×g for 12 min. The PRP was then adjusted to 3×10^8 platelets per mL using the autologous PPP. PRP was maintained at room temperature for less than 4 h before analysis. The remaining PPP was subjected to a high-speed centrifugation at 40,000×g for 30 min at 4° C. to remove any particulate material and was then stored at −70° C. until use.
The impact of Compound No. 3 and aprotinin on thrombin generation was studied in PRP using the commercially available Technothrombin® TGA kit (Technoclone, Vienna, Austria). This method allows assessment of the dynamics of thrombin generation, i.e. initiation, propagation, and inactivation phases, including the contribution of platelet function to the clotting process (Hemker et al., Pathophysiol. Haemost. Thromb. 33: 4-15, 2003). PRP was spiked with test compounds at different concentrations and pre-warmed to 37° C. in a black 96-well flat-bottom plate (Nunc, Wiesbaden, Germany). Thrombin generation was then initiated by adding a mixture of activator and fluorogenic thrombin substrate. […] Starting immediately after addition of reagents, fluorescence was recorded every 60 s for 120 min using the BMG POLARstar microplate reader (BMG Labtech, Offenburg, Germany) set at 390 nm excitation and 460 nm emission maintaining a temperature of 37° C. […] A typical thrombin generation curve is generated by plotting the first derivative (dF/dt) of the original fluorescence versus time curve and comparing it to a standard run containing known amounts of thrombin in buffer. […]

trypsin = conditions: background; cited from earlier work

Compound	endogenous thrombin potential [1]	onset of thrombin generation [1]	peak thrombin level [1]	Ki (trypsin)
N=C(N)c1ccc(CNC(=O)[C@H](Cc2cccc(CN)c2)NC(=O)[C@@H](CCCc2ccccc2)NS(=O)(=O)Cc2cccc(C(=O)O)c2)cc1 [compound 3, 3-HOOC-Bzls-d-Ppg-Phe(3-Ame)-4-Amba×2 acetate]	no impact	concentration-dependent delay	reduction	
aprotinin				0.1 nM
